What was measured:
[1] = system: adult, male CD1 mice; assay: Mouse marble burying (mMB) assay, anxiolytic effect; type: in vivo; conditions: SC injection, one-way ANOVA with Dunnett's test or t-test, read-out: Statistically significant Active Dose
Method: Examples 1, 2 and 58 were evaluated in vivo for anxiolytic effects using (1) mouse marble burying (mMB) methods similar to those described in [K. Njung'e, K. and S. L. Handley, Pharmacology, Biochemistry and Behavior, 1991, 38, 63-67] and (2) a modified Geller-Seifter conflict test described in [N. A. Moore et al. Behavioural Pharmacology. 1994, 5, 196-202].
More specifically for the mMB testing, adult, male CD1 mice (Charles River Laboratories (Kingston, N.Y.)), weighing 25 to 30 g, were used. All animals were group-housed in a standard colony room with a 12:12 light/dark cycle (lights on at 6:00 am) for at least one week prior to testing. Food and water were provided ad libitum. Animals were weighed, tail marked, and randomly assigned to treatment groups before testing.
For each test, sixty minutes after the injection of vehicle or test compound, or 30 min after injection of the positive control, buspirone, mice were individually placed into test cages containing 1.5 in of Aspen bedding (PWI brand) and two rows of 10 marbles (20 marbles per test cage total). Filter tops were used to cover each test cage. Thirty minutes later, mice were removed from test cages and returned to their home cages. The number of fully visible marbles (less than ⅔ covered with bedding) were counted and subtracted from 20 to arrive at the number of marbles buried. Twelve mice were tested per group.
Testing included multiple tests with each test performed to evaluate buspirone hydrochloride (BUS; Sigma Aldrich) (positive control) and/or a compound of the present invention. Each compound was dissolved immediately prior to testing in 20% beta-cyclodextrin (compound of the present invention) or distilled water (BUS) and administered at one or more doses (such as 3, 10, and/or 30 mg/kg) via subcutaneous (SC) or intraperitoneal (IP) injection at the indicated pretreatment times (i.e., 30, 60, or 120 min pretreatment). Doses were measured in mg drug (salt form) per kg body weight. Data was analyzed using one-way ANOVA with post-hoc Dunnett's test.

[2] = molecular target: T1, rat metabotropic glutamate receptor 5 (mGluR5) (Rattus norvegicus, UniProt P31424); assay: Calcium mobilization assay (FLIPR) for negative or positive allosteric activity, HEK 293 cells; type: cell-based; conditions: HEK293, negative allosteric modulation, inhibition of EC80 glutamate response; read-out: FLIPR maximum inhibition
T1 construct: expressed in transfected cells; host or cells: HEK 293
In short: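 Peak Fluo-4 calcium signal over 3 min at room temperature, minus basal, fitted by Hill equation, in stable rat mGluR5 HEK 293 cells (HBSS/HEPES pH 7.4, BSA, probenecid). Inhibition scored against EC80 glutamate, potentiation against EC20 glutamate, glutamate given with compound.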

[3] = molecular target: mGluR5 (Homo sapiens, UniProt P41594); assay: Radioligand binding assay, [3H]MPEP filtration binding to membrane homogenates; conditions: 5 nM [3H]MPEP; Ki calculated from IC50 by Cheng-Prusoff
Method: Binding assays were performed as described in [J. A. O'Brien et al. Mol. Pharmacol., 2003, 64, 731-740] with slight modifications. Briefly, after thawing, the membrane homogenates were resuspended in 50 mM Tris-HCl, 0.9% NaCl binding buffer at pH 7.4 to a final assay concentration of 40 μg protein/well for [^3H]methoxy-5-(2-pyridinylethynyl)pyridine ([^3H] MPEP) (American Radiolabeled Chemicals, Inc., St. Louis, Mo.) filtration binding. Incubations included 5 nM [^3H] MPEP, membranes and either buffer or varying concentrations of compound. Samples were incubated for 60 min at room temperature with shaking. Non-specific binding was defined with 10 μM MPEP. After incubation, samples were filtered over a GF/C filter (presoaked in 0.25% polyethyleneimine (PEI)) and then washed 4 times using a Tomtec® Harvester 96® Mach III cell harvester (Tomtec, Hamden, Conn.) with 0.5 mL ice-cold 50 mM Tris-HCl (pH 7.4).
IC50 values were derived from the inhibition curve and Ki values were calculated according to the Cheng and Prusoff equation of Ki=IC50/(1+[L]/Kd) described in [Y. Cheng and W. H. Prusoff Biochem. Pharmacol. 1973, 22, 3099-3108] where [L] is the concentration of radioligand and Kd is its dissociation constant at the receptor, derived from the saturation isotherm.

T1 sequence (P31424 21-1171 isoform P31424-2 limits assumed): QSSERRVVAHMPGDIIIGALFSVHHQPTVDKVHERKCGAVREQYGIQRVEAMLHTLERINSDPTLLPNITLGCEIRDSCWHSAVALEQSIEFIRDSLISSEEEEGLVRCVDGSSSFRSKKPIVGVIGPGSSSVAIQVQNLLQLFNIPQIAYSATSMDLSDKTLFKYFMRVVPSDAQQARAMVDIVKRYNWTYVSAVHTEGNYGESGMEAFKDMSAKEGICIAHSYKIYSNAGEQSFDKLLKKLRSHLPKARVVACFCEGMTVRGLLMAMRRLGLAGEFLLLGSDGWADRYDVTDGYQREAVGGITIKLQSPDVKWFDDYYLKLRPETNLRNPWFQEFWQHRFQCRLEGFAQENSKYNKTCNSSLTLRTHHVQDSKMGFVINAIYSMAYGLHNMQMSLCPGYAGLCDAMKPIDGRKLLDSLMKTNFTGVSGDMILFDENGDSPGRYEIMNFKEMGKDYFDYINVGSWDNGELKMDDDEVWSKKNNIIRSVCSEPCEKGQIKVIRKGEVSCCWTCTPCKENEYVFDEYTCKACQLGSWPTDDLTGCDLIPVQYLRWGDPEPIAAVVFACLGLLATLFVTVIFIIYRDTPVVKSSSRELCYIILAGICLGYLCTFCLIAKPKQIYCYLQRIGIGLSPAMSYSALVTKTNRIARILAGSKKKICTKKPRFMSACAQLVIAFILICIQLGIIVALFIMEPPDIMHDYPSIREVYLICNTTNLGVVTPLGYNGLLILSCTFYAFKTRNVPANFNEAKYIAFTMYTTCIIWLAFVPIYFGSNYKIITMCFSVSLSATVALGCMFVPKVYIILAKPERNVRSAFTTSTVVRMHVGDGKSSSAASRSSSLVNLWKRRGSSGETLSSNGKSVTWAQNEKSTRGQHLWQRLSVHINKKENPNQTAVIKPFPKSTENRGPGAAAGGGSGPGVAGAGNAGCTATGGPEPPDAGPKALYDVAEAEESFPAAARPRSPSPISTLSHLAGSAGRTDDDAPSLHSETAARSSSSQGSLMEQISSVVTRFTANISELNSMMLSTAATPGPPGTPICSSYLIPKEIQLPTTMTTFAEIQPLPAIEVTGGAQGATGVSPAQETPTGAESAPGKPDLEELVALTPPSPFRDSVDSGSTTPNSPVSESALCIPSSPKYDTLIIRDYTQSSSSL
Sequence of mGluR5 (P41594 21-1212): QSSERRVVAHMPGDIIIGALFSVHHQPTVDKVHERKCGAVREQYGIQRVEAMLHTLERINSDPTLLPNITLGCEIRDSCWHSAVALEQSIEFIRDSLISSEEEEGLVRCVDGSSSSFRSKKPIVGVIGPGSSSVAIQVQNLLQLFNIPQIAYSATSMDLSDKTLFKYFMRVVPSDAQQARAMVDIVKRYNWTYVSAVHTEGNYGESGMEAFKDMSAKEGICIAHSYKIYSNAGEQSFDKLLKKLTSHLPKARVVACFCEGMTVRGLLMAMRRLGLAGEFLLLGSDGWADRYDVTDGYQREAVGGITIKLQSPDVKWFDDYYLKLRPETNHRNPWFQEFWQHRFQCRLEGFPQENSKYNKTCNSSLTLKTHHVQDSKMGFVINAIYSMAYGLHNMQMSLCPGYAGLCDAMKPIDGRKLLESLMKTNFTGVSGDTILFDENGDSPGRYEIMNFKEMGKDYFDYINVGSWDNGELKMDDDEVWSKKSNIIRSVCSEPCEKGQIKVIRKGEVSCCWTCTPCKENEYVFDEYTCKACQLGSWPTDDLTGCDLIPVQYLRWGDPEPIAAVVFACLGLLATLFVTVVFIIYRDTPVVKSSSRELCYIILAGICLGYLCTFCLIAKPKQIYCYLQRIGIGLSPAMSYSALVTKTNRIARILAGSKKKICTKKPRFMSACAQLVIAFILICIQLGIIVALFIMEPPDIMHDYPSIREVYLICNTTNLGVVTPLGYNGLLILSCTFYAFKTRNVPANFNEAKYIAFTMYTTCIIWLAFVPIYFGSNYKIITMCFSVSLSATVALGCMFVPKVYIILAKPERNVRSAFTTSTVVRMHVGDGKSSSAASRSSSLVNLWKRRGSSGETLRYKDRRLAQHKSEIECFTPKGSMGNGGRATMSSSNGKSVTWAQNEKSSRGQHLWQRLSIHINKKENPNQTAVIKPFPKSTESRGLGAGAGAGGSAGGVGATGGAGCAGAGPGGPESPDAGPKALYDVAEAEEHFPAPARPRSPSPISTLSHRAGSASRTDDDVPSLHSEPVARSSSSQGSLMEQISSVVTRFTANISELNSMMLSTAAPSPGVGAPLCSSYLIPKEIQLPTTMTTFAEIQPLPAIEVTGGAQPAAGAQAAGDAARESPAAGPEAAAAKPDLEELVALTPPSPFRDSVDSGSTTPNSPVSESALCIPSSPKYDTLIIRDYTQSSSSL

Structure (SMILES)	minimal effective dose [1] [mg/kg]	Emax [2] [%]	Ki [3] [nM]
Cc1nccc(C(=O)NC23CC4CC(CC(NC(=O)c5cccc(F)c5)(C4)C2)C3)n1 [Example 183, 2-Methyl-pyrimidine-4-carboxylic acid [3-(3-fluoro-benzoylamino)-adamantan-1-yl]-amide]	10	–	–
Cn1ccc(C(=O)NC23CC4CC(C2)CC(NC(=O)c2nccs2)(C4)C3)n1 [Example 19, Thiazole-2-carboxylic acid {3-[(1-methyl-1H-pyrazole-3-carbonyl)-amino]-adamantan-1-yl}-amide]	–	63 to 99	6 to 700
Cc1cncc(C(=O)NC23CC4CC(C2)CC(NC(=O)c2cncc(C)n2)(C4)C3)n1 [Example 145, N,N′-(1,3-adamantylene)bis(6-methyl-pyrazine-2-carboxamide)]	30	70 to 99	–
Cn1ccc2cc(C(=O)NC34CC5CC(C3)CC(NC(=O)c3ccccn3)(C5)C4)ccc21 [Example 69, 1-Methyl-1H-indole-5-carboxylic acid {3-[(pyridine-2-carbonyl)-amino]-adamantan-1-yl}-amide]	–	63 to 99	6 to 700
Cc1cccc(C(=O)NC23CC4CC(C2)CC(NC(=O)c2ccnc(C)n2)(C4)C3)n1 [Example 119, 2-Methyl-pyrimidine-4-carboxylic acid {3-[(6-methyl-pyridine-2-carbonyl)-amino]-adamantan-1-yl}-amide]	10	70 to 99	6 to 700
Cc1nccc(C(=O)NC23CC4CC(CC(NC(=O)c5ccccn5)(C4)C2)C3)n1 [Example 107, 2-Methyl-pyrimidine-4-carboxylic acid {3-[(pyridine-2-carbonyl)-amino]-adamantan-1-yl}-amide]	10	70 to 99	6 to 700
Cc1nc2ccc(C(=O)NC34CC5CC(C3)CC(NC(=O)c3ccccn3)(C5)C4)cc2o1 [Example 65, 2-Methyl-benzoxazole-6-carboxylic acid {3-[(pyridine-2-carbonyl)-amino]-adamantan-1-yl}-amide]	–	63 to 99	6 to 700
Cc1cccc(C(=O)NC23CC4CC(CC(NC(=O)c5cccc(-c6ncccn6)c5)(C4)C2)C3)n1 [Example 44, 6-Methyl-pyridine-2-carboxylic acid [3-(3-pyrimidin-2-yl-benzoylamino)-adamantan-1-yl]-amide]	–	63 to 99	6 to 700
O=C(NC12CC3CC(C1)CC(NC(=O)c1nccs1)(C3)C2)c1ccccn1 [Example 74, Pyridine-2-carboxylic acid {3-[(thiazole-2-carbonyl)-amino]-adamantan-1-yl}-amide]	–	63 to 99	6 to 700
Cc1cccc(C(=O)NC23CC4CC(CC(NC(=O)c5ccccn5)(C4)C2)C3)n1 [Example 72, 6-Methyl-pyridine-2-carboxylic acid {3-[(pyridine-2-carbonyl)-amino]-adamantan-1-yl}-amide]	–	63 to 99	6 to 700
O=C(NC12CC3CC(C1)CC(NC(=O)c1cnccn1)(C3)C2)c1ccc(F)cn1 [Example 185, Pyrazine-2-carboxylic acid {3-[(5-fluoro-pyridine-2-carbonyl)-amino]-adamantan-1-yl}-amide]	30	63 to 99	–
Cc1cccc(C(=O)NC23CC4CC(CC(NC(=O)c5cscn5)(C4)C2)C3)n1 [Example 120, 6-Methyl-pyridine-2-carboxylic acid {3-[(thiazole-4-carbonyl)-amino]-adamantan-1-yl}-amide]	–	70 to 99	6 to 700
Cc1cncc(C(=O)NC23CC4CC(CC(NC(=O)c5cccc(F)c5)(C4)C2)C3)n1 [Example 96, 6-Methyl-pyrazine-2-carboxylic acid [3-(3-fluoro-benzoylamino)-adamantan-1-yl]-amide]	–	63 to 99	6 to 700
Cn1nc2ccccc2c1C(=O)NC12CC3CC(CC(NC(=O)c4ccccn4)(C3)C1)C2 [Example 79, 2-Methyl-2H-indazole-3-carboxylic acid {3-[(pyridine-2-carbonyl)-amino]-adamantan-1-yl}-amide]	–	–	6 to 700
Cc1cncc(C(=O)NC23CC4CC(CC(NC(=O)c5ccc(F)cn5)(C4)C2)C3)n1 [Example 179, 6-Methyl-pyrazine-2-carboxylic acid {3-[(5-fluoro-pyridine-2-carbonyl)-amino]-adamantan-1-yl}-amide]	10	–	–
O=C(NC12CC3CC(C1)CC(NC(=O)c1cnccn1)(C3)C2)c1cccc(F)c1 [Example 95, Pyrazine-2-carboxylic acid [3-(3-fluoro-benzoylamino)-adamantan-1-yl]-amide]	–	63 to 99	6 to 700
Cc1cnc(C(=O)NC23CC4CC(CC(NC(=O)c5ccccn5)(C4)C2)C3)cn1 [Example 63, 5-Methyl-pyrazine-2-carboxylic acid {3-[(pyridine-2-carbonyl)-amino]-adamantan-1-yl}-amide]	30	63 to 99	–
O=C(NC12CC3CC(C1)CC(NC(=O)c1ccccn1)(C3)C2)c1ccc2c(c1)CCN2 [Example 67, 2,3-Dihydro-1H-indole-5-carboxylic acid {3-[(pyridine-2-carbonyl)-amino]-adamantan-1-yl}-amide]	–	63 to 99	6 to 700
O=C(NC12CC3CC(C1)CC(NC(=O)c1ccncn1)(C3)C2)c1cccc(F)c1 [Example 93, Pyrimidine-4-carboxylic acid [3-(3-fluoro-benzoylamino)-adamantan-1-yl]-amide]	30	63 to 99	6 to 700
Cc1cccc(C(=O)NC23CC4CC(C2)CC(NC(=O)c2scc5c2OCCO5)(C4)C3)n1 [Example 38, 6-Methyl-pyridine-2-carboxylic acid {3-[(2,3-dihydro-thieno[3,4-b][1,4]dioxine-5-carbonyl)-amino]-adamantan-1-yl}-amide]	–	63 to 99	–
O=C(NC12CC3CC(C1)CC(NC(=O)c1cnccn1)(C3)C2)c1ccccn1 [Example 105, Pyrazine-2-carboxylic acid {3-[(pyridine-2-carbonyl)-amino]-adamantan-1-yl}-amide]	30	70 to 99	6 to 700

— patent US8716284B2, “Adamantyl diamide derivatives and uses of same” (H. Lundbeck A/S, priority 2008, dated 2014)
